Data on twelve compounds can be found in article PMC10058583, “Development of Novel Fluorinated Polyphenols as Selective Inhibitors of DYRK1A/B Kinase for Treatment of Neuroinflammatory Diseases including Parkinson’s Disease” (Pharmaceuticals, 2023).

pIC50: −log10 of the molar value. Where two headings read alike, the source gives them in different places.

Series [1] concerns the target T1, 6xHis-tagged rat-truncated DYRK1A (residues 1-497) (Rattus norvegicus, UniProt Q63470).
T1 construct: 6xHis-tagged rat-truncated DYRK1A (residues 1-497); 6xHis; made in house
Briefly: ELISA-based non-radioactive kinase assay, DYRK1A. The format is biochemical. Background: An ELISA detects its analyte on a solid surface through an enzyme-linked reagent.

Series [2] deals with T2, human DYRK1B isoform p65 (GST fusion) (Homo sapiens, UniProt Q9Y463).
T2 construct: made in house
T2 sequence (Q9Y463 1-589 isoform Q9Y463-2): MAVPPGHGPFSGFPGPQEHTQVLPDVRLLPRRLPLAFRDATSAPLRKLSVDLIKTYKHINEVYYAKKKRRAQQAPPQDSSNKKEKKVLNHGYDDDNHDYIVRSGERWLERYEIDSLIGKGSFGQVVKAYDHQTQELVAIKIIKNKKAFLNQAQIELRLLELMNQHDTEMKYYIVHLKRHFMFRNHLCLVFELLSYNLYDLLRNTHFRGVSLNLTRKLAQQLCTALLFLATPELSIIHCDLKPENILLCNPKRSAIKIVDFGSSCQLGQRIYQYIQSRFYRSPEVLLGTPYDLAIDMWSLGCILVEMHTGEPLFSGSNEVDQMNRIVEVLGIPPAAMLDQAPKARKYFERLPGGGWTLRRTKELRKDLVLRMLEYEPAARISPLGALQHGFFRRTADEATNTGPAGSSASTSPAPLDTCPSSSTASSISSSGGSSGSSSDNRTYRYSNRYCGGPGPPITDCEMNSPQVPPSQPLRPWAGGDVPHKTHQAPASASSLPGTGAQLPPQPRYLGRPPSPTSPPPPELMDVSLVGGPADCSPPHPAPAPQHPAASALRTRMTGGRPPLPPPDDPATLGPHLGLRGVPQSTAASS
Description: ELISA-based non-radioactive kinase assay, DYRK1B. To be noted: 30 ng GST-DYRK1B, 60 min reaction. The class given is biochemical. The procedure:
(§1) DYRK1B was prepared from human DYRK1B isoform p65 as glutathione S-transferase fusion protein, and DYRK2 was prepared from human DYRK2 isoform 1 as 6xHis-tagged protein, as previously described.
(§2) For DYRK2, the reactions were performed exactly as described for DYRK1A. For DYRK1B, the assays were similarly conducted but with 30 ng GST-DYRK1B and a kinase reaction time of 60 min.

Series [3] concerns the target T3, human DYRK2 isoform 1 (6xHis-tagged) (Homo sapiens, UniProt Q92630).
T3 sequence (Q92630 74-601 limits assumed): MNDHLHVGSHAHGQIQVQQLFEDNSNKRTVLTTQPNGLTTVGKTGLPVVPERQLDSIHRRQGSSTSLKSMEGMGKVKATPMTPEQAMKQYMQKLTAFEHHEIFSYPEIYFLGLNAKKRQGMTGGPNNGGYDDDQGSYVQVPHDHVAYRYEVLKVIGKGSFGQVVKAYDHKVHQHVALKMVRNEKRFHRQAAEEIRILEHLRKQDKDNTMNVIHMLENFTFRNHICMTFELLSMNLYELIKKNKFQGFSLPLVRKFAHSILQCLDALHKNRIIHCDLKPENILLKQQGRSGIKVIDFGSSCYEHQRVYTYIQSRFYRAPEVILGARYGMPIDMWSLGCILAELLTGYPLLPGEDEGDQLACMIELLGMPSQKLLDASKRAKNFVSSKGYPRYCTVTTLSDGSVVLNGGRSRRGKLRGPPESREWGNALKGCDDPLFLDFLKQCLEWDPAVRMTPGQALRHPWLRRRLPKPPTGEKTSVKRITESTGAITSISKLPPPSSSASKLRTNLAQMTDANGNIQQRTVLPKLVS
Description: ELISA-based non-radioactive kinase assay, DYRK2. The format is biochemical. The procedure: as §1, §2

The subject of series [4] is LPS-induced inflammation in C57BL/6J mice. Description: LPS-induced inflammation model. The class given is in vivo, mouse. The note with it: positive control 1 mg/kg PO, LPS i.p. 750 µg/kg. The procedure: Neuroinflammation is an important factor contributing to cognitive impairment and neurodegenerative diseases such as PD, and the administration of LPS is frequently used to study neuroinflammation-associated diseases in mice.
Each group consisted of six male mice. […] Animals were pretreated for 3 days with the drug of choice; then, treatment with LPS commenced on day 0, and on the 5th day of LPS treatment, the drug was administered half an hour before LPS injection. One hour after LPS treatment, the animals were anesthetized with a mixture of ketamine, xylazine 2%, atropine, and saline (4:2.5:1:2.5). The body temperature of mice under anesthesia was maintained by applying a heating blanket and monitored using a rectal thermometer. After anesthesia, the animals underwent cardiac perfusion with ice-cold saline for three minutes (3 mL/minute via peristaltic pump) via the left ventricle. The right atrium was cut as an outflow route. The right hemisphere was post-fixed overnight in 4% PFA in PBS at 4 °C and stored in 1xPBS containing 0.1% (v/w) sodium azide at 4 °C. The left hemisphere, hippocampus, cortex, midbrain, and brainstem were microdissected, immersed in liquid nitrogen in separate tubes (with one-fifth of the rest of the brain tissue), and stored in microfuge tubes at −80°. TNFα (in both plasma and the hippocampus) was analyzed with ELISA, and the p-tau (AT-8 antibody) level was recorded in the hippocampus and cortex with WB.

For the next series, the system named is DYRK1A. To be noted: cited from earlier work.
A further series has as its system DYRK1B. To be noted: read-out: published IC50 DYRK1B; cited from earlier work.
A further series deals with DYRK2. The note with it: read-out: published IC50 DYRK2; cited from earlier work.
A short description of series [5]: Pharmacokinetic studies in C57BL/6 mice (plasma and tissues). The format is in vivo, mouse. To be noted: PO (100 mg/kg). The procedure:
To overcome the generally poor PK profile of catechins, we developed a proprietary formulation that allows for the delivery of these drugs in high concentrations for oral (PO) or intranasal (IN) use. Our liquid formulation is based on the solubilizer and penetration enhancer (2-hydroxypropyl)-β-cyclodextrin (HP-β-CD), PEG-400, and water. This vehicle allows us to achieve high drug concentration in dosing solution (up to 20% w/w) when needed. PK studies were conducted for 1c in adult male and female C57BL/6 mice (n = 3/sex/time point) using (1) a single IV dose (5 mg/kg), (2) an IN dose (60 mg/kg, 5 µL of a clear solution/nostril/twice), and (3) a single PO dose (100 mg/kg). We analyzed the concentration of the drug in several tissues, including the brain, lungs, liver, and plasma. We observed that this class of molecules is stable in circulation; however, when the tissues are harvested for bioanalytical work, the drug undergoes rapid degradation, probably because of the direct contact with oxygen and metals, which catalyzes its rapid degradation/oxidation. We were able to stabilize the drug in blood by the immediate addition of ascorbic acid and TCEP [29]; however, the same was not possible with solid organs such as the brain and liver, which need to be collected through surgery and homogenized before any stabilizing agent can be added. Therefore, tissue PK data tend to vary.
C57BL/6J mice were given a single dose of drug via the IN or PO route. […] For PO delivery, we replaced water with saline. The volume for IN delivery was 5 µL/nostril, and the volume used for oral delivery was 10 mL/kg. After sacrifice, blood (500 µL) was collected into K2EDTA microtubes and kept on ice all times (must be centrifuged within 30 min of collection). Blood was centrifuged in EDTA vacuum at 4 °C at 15,000× g for 4 min; ~250 µL of plasma was collected into polyethylene tubes containing 50 µL of AA/TCEP stabilizing solution (20 mM ascorbic acid and 13 mM TCEP in 50 mM K2HPO4 buffer; the pH of the solution was adjusted to 6.5 using 2 M NaOH). Then, 200 µL of the collected plasma was mixed with (1) 24 µL of a solution of 10% ascorbic acid and 0.1% EDTA in 40 mM NaH2PO4; (2) 40 µL of 50 mM sodium phosphate (pH 7.4); (3) 500 units of β-D-glucuronidase type X-A from Escherichia coli (Sigma Chemical Co, St Louis, MO, USA), and (4) 4 units of sulfatase type VIII from abalone entrails (Sigma Chemical Co). The mixture was incubated at 37 °C for 45 min. Plasma was then extracted by the addition of 0.5 mL ACN; the mixture was vortex-mixed for 2 min, then snap-frozen with isopropanol/carbon dioxide dry ice, and the upper layer of ACN was removed. The process was repeated another 2 times. The ACN fractions were pooled into a polyethylene tube kept on ice. The combined fractions were evaporated under a gentle stream of nitrogen at ambient temperature. The residue obtained after evaporation was reconstituted in 200 µL of 75 mM citric acid//25 mM ammonium acetate: ACN (75:25 by vol), and vortexed vigorously for 5 min, and 20 µL of the resulting solution was injected into the LC-MS/MS column.
Drug analysis in tissues: About ~0.4 g of the tissue was homogenized with 1 mL of ice-cold 0.4 M sodium phosphate buffer containing 6 mg of ascorbic acid and 0.5 mg of Na2EDTA (final pH of 6.5). After centrifugation at 4 °C at 15,000× g for 4 min, the supernatant was collected into polyethylene tubes containing 50 µL of the AA/TCEP stabilizing solution. Then 1 U of sulfatase and 250 U of β-glucuronidase were added to the abovementioned homogenized mixture. Samples were incubated at 37 °C for 45 min, then extracted, dried, and resuspended in a manner similar to that for plasma. Samples were then analyzed by LC-MS/MS.

The mark [6] stands for this setting: both sexes, C57BL/6, mouse, plasma.

For the compound `O=C(O[C@@H]1Cc2c(O)cc(O)cc2O[C@H]1c1cc(O)c(O)c(O)c1)c1cc(O)c(O)c(O)c1F` [Compound 1a], the pIC50 (usually the IC50 on a negative log10 scale, so that one unit is a factor of ten) in series [1] (read-out: DYRK1A IC50) was 7.46; in series [2], 7.38; in series [3] it was 6.59.
For the compound `O=C(O[C@@H]1Cc2c(O)cc(O)cc2O[C@H]1c1cc(O)c(O)c(O)c1)c1cc(O)c(O)c(O)c1` [GCG, reference compound], the pIC50 in series [3] was 6.24.
As to `C[C@@H]1C[C@H]2[C@@H]3CCC4=CC(=O)C=C[C@]4(C)[C@@]3(F)[C@@H](O)C[C@]2(C)[C@@]1(O)C(=O)CO` [Dexamethasone, reference compound], the efficacy in plasma result in series [4] is listed as “high efficacy”.
As for `CC(C)Oc1c(O)c(O)c(F)c(C(=O)O[C@@H]2Cc3c(O)cc(O)cc3O[C@H]2c2cc(O)c(O)c(O)c2)c1F` [Compound 1h], in series [1] (read-out: DYRK1A IC50), the pIC50 was 6.45.
With `COc1c(O)c(O)c(F)c(C(=O)O[C@@H]2Cc3c(O)cc(O)cc3O[C@H]2c2cc(O)c(O)c(O)c2)c1F` [Compound 1e], in series [1] (read-out: DYRK1A IC50), the pIC50 is 6.90.
On to `COc1cc(N2CCN(C)CC2)ccc1Nc1nccc(-c2cn(C)c3cnccc23)n1` [AZ-191], for which the pIC50 was 7.01 in series [1]; 5.76 in series [3]; 7.06 with DYRK1A (read-out: published IC50 DYRK1A); 7.77 in the series with DYRK1B; 5.72 in the series with DYRK2.
In the case of `O=C(O[C@@H]1Cc2c(O)cc(O)cc2O[C@H]1c1cc(O)c(O)c(O)c1)c1cc(OC(F)F)c(O)c(O)c1F` [Compound 1g], the pIC50 in series [1] (read-out: DYRK1A IC50) was 6.87.
On the same count and under the same terms, next, `O=C(O[C@@H]1Cc2c(O)cc(O)cc2O[C@H]1c1cc(O)c(O)c(O)c1)c1cc(O)c(O)c(OC(F)F)c1` [Compound 1f]: 6.60.
As to `COc1cc(C(=O)OC2Cc3c(O)cc(O)cc3OC2c2cc(O)c(O)c(O)c2)cc(O)c1O` (stereo not shown) [GCG-3”OMe, reference compound], in series [1] (read-out: DYRK1A IC50), the pIC50 was 6.69.
Turning to `O=C(O[C@@H]1Cc2c(O)cc(O)cc2O[C@H]1c1cc(O)c(O)c(O)c1)c1c(F)c(O)c(O)c(O)c1F` [Compound 1b], the “improvement in anti-DYRK1A activity compared to EGCG” value in series [1] is on record as “eightfold”. For the same compound, in series [1] (read-out: DYRK1A IC50), the pIC50 was 7.55. Besides, the pIC50 in series [2] was 7.35. In series [3], the pIC50 was 6.74. The “bioavailability (in words)” value in series [5] is on record as “much lower than that of 1c”. Moreover, the Tlast in series [5] (plasma) is given as 24 h. Besides, in series [5] (setting [6]), the AUC(0-inf) – broadly, total exposure, with the tail of the curve extrapolated – came to 472 ng·h/mL; the AUC(0-t) – broadly, exposure summed from dosing to a finite time, without extrapolation to infinity – is 379 ng·h/mL; the Cmax – broadly, the maximum level reached in the sampled fluid or tissue – came out at 131 ng/mL; the Tmax (in general, the time at which the peak concentration occurs) is 0.5 h. Moreover, in series [5] (setting [6]), the half-life (commonly how long it takes for the measured level to halve) is 12.7 h.
As to `O=C(O[C@@H]1Cc2c(O)cc(O)cc2O[C@@H]1c1cc(O)c(O)c(O)c1)c1cc(O)c(O)c(O)c1` [EGCG, epigallocatechin gallate, reference compound], the pIC50 in series [3] was 5.83. Also, in series [5] (setting [6]), the AUC(0-inf) came to 395 ng·h/mL, the AUC(0-t) was determined as 360 ng·h/mL, the peak level (Cmax) was 55 ng/mL and the half-life is 5.02 h. In addition, in series [5] (both sexes, C57BL/6, mouse, plasma, po, 100 mg/kg, plasma, read-out: F (absolute bioavailability)), the bioavailability (commonly the share of a dose that reaches the circulation, judged against a reference dose that is usually intravenous) was 2%. For the same compound, the negative logarithm of the IC50 (pIC50) in the series with DYRK1A (allosteric inhibitor, read-out: DYRK1A in vitro IC50) was 6.40 to 6.52.
In the case of `COc1c(O)c(O)cc(C(=O)O[C@@H]2Cc3c(O)cc(O)cc3O[C@H]2c2cc(O)c(O)c(O)c2)c1F` [Compound 1d], the pIC50 in series [1] (read-out: DYRK1A IC50) was 6.82.
